Measurements from US20140243334A1, “SUBSTITUTED HYDOXAMIC ACIDS AND USES THEREOF” (Millennium Pharmaceuticals, Inc., priority 2010, published 2014).

Biological target: T1, purified human HDAC6 (Homo sapiens, UniProt Q9UBN7)
T1 construct: purchased BPS Bioscience 5006
T1 sequence (Q9UBN7 1-1215): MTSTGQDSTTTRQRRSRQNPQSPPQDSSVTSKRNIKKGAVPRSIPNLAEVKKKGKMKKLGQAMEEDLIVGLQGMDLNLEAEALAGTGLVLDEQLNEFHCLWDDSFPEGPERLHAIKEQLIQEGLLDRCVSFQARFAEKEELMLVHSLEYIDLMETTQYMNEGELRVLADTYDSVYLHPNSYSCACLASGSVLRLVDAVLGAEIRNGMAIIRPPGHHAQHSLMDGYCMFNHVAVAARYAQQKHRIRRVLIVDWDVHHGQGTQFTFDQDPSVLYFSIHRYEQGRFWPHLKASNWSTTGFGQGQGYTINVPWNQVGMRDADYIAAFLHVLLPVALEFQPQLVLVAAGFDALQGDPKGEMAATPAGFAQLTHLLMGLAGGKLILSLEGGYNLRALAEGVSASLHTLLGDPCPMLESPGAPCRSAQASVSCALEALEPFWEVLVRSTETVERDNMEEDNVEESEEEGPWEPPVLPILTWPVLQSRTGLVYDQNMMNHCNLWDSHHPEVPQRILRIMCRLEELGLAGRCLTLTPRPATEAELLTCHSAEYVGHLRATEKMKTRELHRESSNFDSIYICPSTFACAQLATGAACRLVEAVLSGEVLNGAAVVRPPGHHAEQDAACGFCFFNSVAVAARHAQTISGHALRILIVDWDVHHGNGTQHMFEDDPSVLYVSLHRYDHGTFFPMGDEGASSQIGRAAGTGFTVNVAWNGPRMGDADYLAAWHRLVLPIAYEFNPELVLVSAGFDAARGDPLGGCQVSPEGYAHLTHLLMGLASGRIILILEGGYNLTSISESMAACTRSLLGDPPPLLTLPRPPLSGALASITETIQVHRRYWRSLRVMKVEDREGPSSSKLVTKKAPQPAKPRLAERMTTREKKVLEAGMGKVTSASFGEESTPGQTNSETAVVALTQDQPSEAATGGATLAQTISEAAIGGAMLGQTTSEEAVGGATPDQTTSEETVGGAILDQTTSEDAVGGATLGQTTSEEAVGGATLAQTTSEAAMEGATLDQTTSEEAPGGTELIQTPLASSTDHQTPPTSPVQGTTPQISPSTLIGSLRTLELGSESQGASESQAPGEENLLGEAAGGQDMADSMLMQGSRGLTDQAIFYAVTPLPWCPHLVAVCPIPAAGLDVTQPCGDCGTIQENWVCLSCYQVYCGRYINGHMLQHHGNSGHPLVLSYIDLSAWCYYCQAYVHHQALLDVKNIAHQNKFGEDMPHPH
Test: HDAC6 Enzyme Assay
Type: biochemical
Settings: HDAC6 inhibition at a compound concentration of 0.412 μM; read-out: Percent Inhibition at 0.412 μM

Structure (SMILES) | inhibition at 0.412 µM [%]
O=C(NO)C1CCc2ccc(Oc3cccc(NC(=O)C4CC4)c3)cc2C1 (stereo not shown) [Compound I-50, 7-{3-[(cyclopropylcarbonyl)amino]phenoxy}-N-hydroxy-1,2,3,4-tetrahydronaphthalene-2-carboxamide] | 84
O=C(NC1CC1)c1cccc(Oc2ccc3c(c2)CC(C(=O)NO)CC3)c1 (stereo not shown) [Compound I-43, 7-{3-[(cyclopropylamino)carbonyl]phenoxy}-N-hydroxy-1,2,3,4-tetrahydronaphthalene-2-carboxamide] | 19
O=C(NO)C1CCc2ccc(C#Cc3ccccc3)cc2C1 (stereo not shown) [Compound I-34, N-hydroxy-7-(phenylethynyl)-1,2,3,4-tetrahydronaphthalene-2-carboxamide] | 57
O=C(NO)C1CCc2ccc(-c3ccc4cc[nH]c4c3)cc2C1 (stereo not shown) [Compound I-72, N-hydroxy-7-(1H-indol-6-yl)-1,2,3,4-tetrahydronaphthalene-2-carboxamide] | 87
CC1(C(=O)Nc2ccc3c(c2)CC(C(=O)NO)CC3)CCNCC1 (stereo not shown) [Compound I-18, N-{7-[(hydroxyamino)carbonyl]-5,6,7,8-tetrahydronaphthalen-2-yl}-4-methylpiperidine-4-carboxamide] | 54
O=C(NO)C1CCc2ccc(Oc3cccc(OCc4ccccc4)c3)cc2C1 (stereo not shown) [Compound I-41, 7-[3-(benzyloxy)phenoxy]-N-hydroxy-1,2,3,4-tetrahydronaphthalene-2-carboxamide] | 64
CC(=O)Nc1cccc(Oc2ccc3c(c2)CC(C(=O)NO)CC3)c1 (stereo not shown) [Compound I-21, 7-[3-(acetylamino)phenoxy]-N-hydroxy-1,2,3,4-tetrahydronaphthalene-2-carboxamide] | 80

More lines, now with the values ahead:

inhibition at 0.412 µM [%] | Structure (SMILES)
64 | O=C(NO)C1CCc2ccc(Oc3ccc(NCc4ccc(Cl)cc4)cc3)cc2C1 (stereo not shown) [Compound I-73, 7-{4-[(4-chlorobenzyl)amino]phenoxy}-N-hydroxy-1,2,3,4-tetrahydronaphthalene-2-carboxamide]
89 | O=C(NO)C1CCc2ccc(-c3ccc4[nH]cnc4c3)cc2C1 (stereo not shown) [Compound I-81, 7-(1H-benzimidazol-5-yl)-N-hydroxy-1,2,3,4-tetrahydronaphthalene-2-carboxamide]
48 | O=C(NO)C1CCc2cc(Nc3ccc(Cl)cc3)ccc2C1 (stereo not shown) [Compound I-78, 6-[(4-chlorophenyl)amino]-N-hydroxy-1,2,3,4-tetrahydronaphthalene-2-carboxamide]
85 | O=C(NO)C1CCc2ccc(-c3ccc4c(c3)CCO4)cc2C1 (stereo not shown) [Compound I-90, 7-(2,3-dihydro-1-benzofuran-5-yl)-N-hydroxy-1,2,3,4-tetrahydronaphthalene-2-carboxamide]
82 | COc1ccc(-c2ccc3c(c2)CC(C(=O)NO)CC3)cc1F (stereo not shown) [Compound I-101, 7-(3-fluoro-4-methoxyphenyl)-N-hydroxy-1,2,3,4-tetrahydronaphthalene-2-carboxamide]
79 | O=C(NO)C1CCc2ccc(-c3csc4ccccc34)cc2C1 (stereo not shown) [Compound I-96, 7-(1-benzothien-3-yl)-N-hydroxy-1,2,3,4-tetrahydronaphthalene-2-carboxamide]
